Tests used:
HSV-2 (strain MS) = test: HSV-β-GAL assay (transient expression of beta galactosidase in transfected HeLa cells superinfected with HSV-2); assay type: cell-based; settings: HeLa cells transfected with pON 245^ori-, moi=5 pfu/cell, more than one number = additional tests; for IC50: Human alphaherpesvirus 2, HeLa, 24 h, read-out: ANTI-HSV ACTIVITY HSV-β-GAL ASSAY IC50
Experimental: HeLa and Vero cell cultures were maintained in Eagles Minimal Essential Medium which was supplemented with glutamine, penicillin, streptomycin and 10% fetal calf serum (10% EMEM). Stock cultures of HSV-2 (strain MS available from ATCC VR-540) were grown in and harvested from Vero cells. Viral stocks were titered in Vero cells according to established procedures.
Plasmid pON 245^ori- contains the promoter of the HSV-1 thymidine kinase (tk) gene located immediately 5' of the E. coli lac Z gene. In this arrangement, the tk promoter controls transcription from the bacterial gene in transient expression assays. Additionally, an SV40 polyadenylation signal is present at the 3' end of the lac Z gene to allow for the efficient translation of the mRNA in eucaryotic cells. The expression of beta galactosidase in a transient assay using pON 245^ori- is dependent upon superinfection of the transfected cells with HSV. […] For example, see U.S. application Ser. No. 07/435,491 filed Sep. 5, 1989, the disclosure of which is incorporated herein by reference thereto.
HeLa cells were seeded into 96 well microtiter plates and allowed to grow to 80% confluency (approximately 35000 cells/well). One half microgram of plasmid pON 245^ori- DNA was introduced into the cells of each well by the […] precipitation technique (Grahman and Van der Eb, 1973). Four to six hours later, the cells were rinsed with Hank's Balanced Salt Solution (HBSS), overlaid with 10% EMEM and incubated at 37° C. At 24 hrs post-transfection, cells were rinsed, overlaid with 10% EMEM again and re-incubated at 37° C. At 48 hrs. post-transfection, cells were rinsed and overlaid with either EMEM containing 2% fetal calf serum (2% EMEM), 2% EMEM containing HSV-2 (strain MS, Multiplicity of Infection [moi]=5 pfu/cell) or 2% EMEM containing HSV-2 and the appropriate concentration of the compound to be tested. Twenty-four hrs later, the cells were harvested and assayed for beta galactosidase activity as described below.
All determinations of beta galactosidase activity were performed in 96 well microtiter plates. The intracellar level of beta galactosidase activity in each well was determined from cell lysates of the monolayer cultures. Aliquots were assayed by incubation in the presence of beta galactosidase substrate, 4-methylumbelliferyl-β-D-galactoside (MUG, 125 ug/ml, Sigma), for 2 hrs. The generation of fluorescent product was quantified on a Microfluor microfluorimeter (Dynatech) after addition of 0.1M glycine, pH 10.3 (Spaete and Mocarski, 1985). The inhibitory activity of a compound was plotted versus the concentration and an IC50 value (the concentration of compound required to reduce beta glactosidase expression by 50%) was obtained for each compound tested.

[1] = Cytotoxicity, 3H-LEU assay (inhibition of HeLa cell translation); assay type: cell-based; settings: human; HeLa cells, tritiated leucine incorporation after overnight/24 hrs treatment; read-out: CYTOTOXICITY 3H-LEU ASSAY IC50
Experimental: HeLa cells were treated with inhibitory compound for 24 hrs, after which levels of translational activity were assayed.
For assay of translational activity, HeLa cultures were grown to 80% confluency in 96 well microtiter plates, treated with appropriate concentrations of compound in 2% EMEM during an overnight incubation at 37° C., then rinsed with HBSS and overlaid with […] of 2% EMEM containing 8 uCi of tritiated leucine (^3 H-LEU, 141 Cu/mMol, Amersham Corp., Arlington Heights Ill.). After a 1 hr incubation at 36.5° C., the cells were rinsed twice with phosphate buffered saline (PBS) and lysed in 400 ul/well of 1×PBS, 0.5% sodium dodecyl sulphate (SDS). After a 10 min incubation at 36.5° C., the contents of the well were transferred to a well in a Millititer HA microfiltration plate (Millipore Corp., Bedford, Mass.). The TCA insoluble proteins were precipitated onto the filter disc by a 10 min fixation with 5% TCA, followed by filtration under vacuum and three 10 minute rinse with 95% ethanol. The filters were dried at room temperature, cut from the milltitier plate and transferred to scintillation vials. TCA precipitable counts were assayed in 5 ml of Scintisol (Isolab, Akron, Ohio). The inhibitory activity of a compound was plotted versus the concentration and an IC50 value (that concentration of the compound required to decrease cellular translational activity by 50%) was derived for each compound.

HSV-2, strain MS = test: In vivo anti-HSV efficacy, prophylactic guinea pig model of HSV infection; settings: 60 mg per kg subcutaneously, T.I.D., 10 days, first dose 24 hrs before infection
Experimental: The in vivo assessment of anti-HSV efficacy was determined in the prophylactic guinea pig model of HSV infection described by Stansberry et al (1982). Dosing of guinea pigs was comprised of an initial treatment with test compound given 24 hrs prior to virus infection and subsequent administration of the compound every eight hours (T.I.D.) for a total of 10 days. Test compounds were administered subcutaneously in 0.5% buffered methyl cellulose at a dose of 60 mg per kg body weight of the animal. Animals were monitored daily for the developement of genital lesions and neurological symptomology, both of which were recorded and compared to the results obtained with parallel groups which received placebo or acyclovir treatment. Efficacy was evaluated for each compound by scoring the ability of the compound to ameliorate genital lesions produced by infection with HSV-2, strain MS, expressed as Maximum Lesion scores (MLS) on a scale of 1 (least lesions) to 4 (severe lesions).

Compound	IC50 (HSV-2 (strain MS))	CC50 at 24 h [1]	ANTI-HSV ACTIVITY HSV-β-GAL ASSAY IC50 (HSV-2 (strain MS); 24 hrs)	In-vivo anti-HSV activity (genital lesions, Maximum Lesion score) (HSV-2, strain MS)
CN1C(=O)C(=NO)C(=O)c2ccccc21 [Formula 1.02]	7 µg/mL	27 µg/mL	–	–
O=C1C(=NO)C(=O)N(Cc2ccccc2)c2ccccc21 [Formula 1.03]	7 µg/mL	40 µg/mL	–	–
CCCCCCCN1C(=O)C(=NO)C(=O)c2ccccc21 [Formula 1.04]	< 3 µg/mL	37 µg/mL	2.5 µg/mL	inactive

— patent publication US5190956A, “Certain N-substituted 3-oximino-2,4-dioxoquinolin-2,4-(1H)diones useful for treating viral infections” (Schering Corporation, priority 1990, dated 1993)
